Results as given in patent US20250205342A1, “IRAK DEGRADERS AND USES THEREOF” (Kymera Therapeutics, Inc., priority 2022, published 2025).
Each block holds one molecule with its values, some of them ahead of it.

Experiments:
IRAK4 [1] = target: T1, IRAK4 (Homo sapiens, UniProt Q9NWZ3); experiment: hPBMC IRAK4 degradation flow assay (monocytes); assay type: cell-based; design: endogenous in cells; host or cells: human PBMCs (monocytes, CD14 positive gate); conditions: CD14 positive monocytes, 20 h, read-out: hPBMC monocyte DC50 at 20 h
T1 sequence (Q9NWZ3 1-460): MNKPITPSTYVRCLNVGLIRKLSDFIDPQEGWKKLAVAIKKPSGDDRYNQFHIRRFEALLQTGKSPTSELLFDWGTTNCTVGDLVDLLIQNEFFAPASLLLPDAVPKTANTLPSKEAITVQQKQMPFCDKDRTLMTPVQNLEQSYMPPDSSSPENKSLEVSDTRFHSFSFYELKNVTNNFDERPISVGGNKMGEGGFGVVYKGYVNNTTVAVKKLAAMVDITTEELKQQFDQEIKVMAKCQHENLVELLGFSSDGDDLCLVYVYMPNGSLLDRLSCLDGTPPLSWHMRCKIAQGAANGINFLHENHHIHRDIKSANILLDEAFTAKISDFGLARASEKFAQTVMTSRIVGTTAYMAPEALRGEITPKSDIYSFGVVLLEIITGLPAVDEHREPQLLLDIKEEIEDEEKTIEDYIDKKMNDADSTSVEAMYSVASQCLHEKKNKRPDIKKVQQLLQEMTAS
Protocol: In the hPBMC IRAK4 degradation flow assay, frozen PBMCs were thawed into RPMI with 10% FBS and allowed to recover. On the same day as thawed, PBMCs were plated in 96 well plate, 90 μL per well. Compound plates were prepared and a 10 point, 5-fold dilution was performed with a final DMSO concentration of 0.1%. Compound 10 μL per well was added, sealed and incubated at 37° C., 5% CO2 for 20 hours (for 4 hour treatment, compounds were prepared and added the following day). Following the treatment incubation period (day 1), 1.6% PFA was added to PBMC plate and placed on plate shaker for 30 seconds and incubated for 10 mins at room temperature. Cells were spun down and washed two times with PBS/0.5% BSA, aspirated to pellet and placed into −80° C. freezer until further processing for flow. On the flow run day, PBMC plates were thawed and samples were transferred to PCR plates. The pre-perm staining cocktail (CD3 Ax488/CD8 BUV805/CD14 BUV395/CD16/56 BV711/CD19 BV785) was added to samples and incubated for 30 minutes at room temperature. Samples were washed two times and permeabilized with methanol for 10 minutes at 4° C. Samples were washed two times and the post-perm staining cocktail (CD4 PE/IRAK4 Ax647 BD #560315) was added and incubated for 30 minutes at room temperature. Samples were washed two times with PBS/BSA and run on a BD LSRFortessa. Mononuclear cells are gated by SSCH/FSCH and single cells. Monocytes are then gated through CD14 positive gate and lymphocytes are gated through CD14 negative gate. To determine absolute DC50 and max degradation values, MFI values were normalized to DMSO max and 20 hour 10 µM min control. Twenty hour dose curves were calculated using a 4 parameter logistic regression curve fit, no constraints (Top doses were removed if hook effects were observed and the bottom was constrained to 0).
(§1) IRAK4 MSD degradation in OCI-LY10 results at 4 and 24 hrs and hPBMC at 20 hrs for compounds of the invention are presented in Table 3. The letter codes for IRAK4 DC50 include: A (<0.1 μM), B (0.1-1.0 μM), C(>1.0-10.0 μM), D (>10.0 μM or not determined).

IRAK4 [2] = target: T1, IRAK4; experiment: IRAK4 degradation in OCI-LY10 (MSD, Meso Scale Discovery); assay type: cell-based; design: endogenous in cells; host or cells: OCI-LY10; conditions: OCI-LY10 cells, 24 h
Protocol: Degradation of IRAK4 in OCI-LY10 was quantitatively measured using Meso Scale Discovery technology. OCI-LY10 cells were seeded in 96-well plates (Corning 3799) with a density of 300,000 cells per well in 100 μL fresh media. Compounds were then added to the assay plates with a final top concentration of 1 to 10 μM in a 1:3 dilution series with total of 8 doses. The assay plates were then incubated for 4 to 24 hours at 37° C. under 5% CO2. The assay plates were then centrifuged for 5 minutes and the cell pellets were treated with 100 μL/well RIPA lysis buffer (Boston BioProducts BP-115D) with proteinase inhibitors. To prepare MSD assay plates (Meso Scale Discovery Catalog number L15XA-3), the plates were coated with 2 ug/mL capture antibody (mouse Anti-IRAK4 antibody [2H9], ab119942) in PBS, at 40 μL/well. The plates were then incubated overnight at […], washed 3 times with 150 μL/well TBST buffer (Cell Signaling Technology, Catalog number 9997S) and blocked with 150 μL/well blocking buffer (Meso Scale Discovery Catalog number R^93BA-4). Cell lysates were then added to MSD assay plates and the plates were incubated at room temperature for 1 hour. The plates were then washed 3 times with 150 μL/well TBST buffer and 25 μL/well primary detection antibody (rabbit Anti-IRAK4 antibody [Y279], from Abcam. Catalog number ab32511, 1 μg/mL). The assay plates were then incubated at room temperature for 1 hour, washed 3 times with 150 μL/well TBST buffer and 25 μL/well secondary detection antibody, SULFO-TAG anti-rabbit antibody were added (anti-rabbit antibody from Meso Scale Discovery, Catalog number R^32AB-1, 1 μg/mL). The assay plates were then incubated at room temperature for 1 hour, washed 3 times with 150 μL/well TBST buffer, and 150 μL/well MSD reading buffer (Meso Scale Discovery catalog number R^92TC-2) was added. The plates were then analyzed by a MSD reader (Meso Scale Discovery, Model Quick Plex SQ 120). The data was then analyzed by software Prism 7.0 from GraphPad and the dose-depended IRAK4 degradation were fit using a three-parameter logistic equation to calculate DC50.
as §1

SMILES: CC(C)(O)c1cc2nn([C@H]3CC[C@H](CNCCCn4ccc5c(C(=O)Nc6ccc(=O)n(CC(=O)O)c6)cccc54)CC3)cc2cc1NC(=O)c1cccc(C(F)(F)F)n1 [Compound I-78]
DC50 (IRAK4 [1]): > 10 µM
DC50 (IRAK4 [2]): > 10 µM

SMILES: CCOC(=O)Cn1cc(NC(=O)c2ccc(-c3ccc(CCCCCCCCCNC[C@H]4CC[C@H](n5cc(NC(=O)c6cnn7ccc(N8C[C@H]9C[C@@H]8CO9)nc67)c(C(F)F)n5)CC4)cc3)cc2OC)ccc1=O [Compound I-67]
DC50 (IRAK4 [1]): > 10 µM
DC50 (IRAK4 [2]): > 10 µM

SMILES: CCOC(=O)Cn1cc(NC(=O)[C@H]2CCCN(c3cncc(OCCOCCOCCOCCOCCNC[C@H]4CC[C@H](n5cc(NC(=O)c6cnn7ccc(N8C[C@H]9C[C@@H]8CO9)nc67)c(C(F)F)n5)CC4)c3)C2)ccc1=O [Compound I-47]
DC50 (IRAK4 [1]): > 10 µM
DC50 (IRAK4 [2]): > 10 µM

SMILES: CCOC(=O)Cn1cc(NC(=O)[C@H]2CCCN(c3cncc(N4CCC(CN(C)C[C@H]5CC[C@H](n6cc(NC(=O)c7cnn8ccc(N9C[C@H]%10C[C@@H]9CO%10)nc78)c(C(F)F)n6)CC5)CC4)c3)C2)ccc1=O [Compound I-34]
DC50 (IRAK4 [1]): > 10 µM
DC50 (IRAK4 [2]): > 10 µM

SMILES: CC(C)(O)c1cc2nn([C@H]3CC[C@H](CNCCCCCCc4cncc(-c5cccc(C(=O)Nc6ccc(=O)n(CC(=O)O)c6)c5)c4)CC3)cc2cc1NC(=O)c1cccc(C(F)(F)F)n1 [Compound I-94]
DC50 (IRAK4 [1]): > 10 µM
DC50 (IRAK4 [2]): 1 to 10 µM

SMILES: CCOC(=O)Cn1cc(NC(=O)[C@H]2CCCN(c3cncc(NCCNC[C@H]4CC[C@H](n5cc(NC(=O)c6cnn7ccc(N8C[C@H]9C[C@@H]8CO9)nc67)c(C(F)F)n5)CC4)c3)C2)ccc1=O [Compound I-16]
DC50 (IRAK4 [1]): > 10 µM
DC50 (IRAK4 [2]): > 10 µM

SMILES: COC(=O)Cn1cc(NC(=O)c2cccc(-c3cncc(CCCCCCCCCNC[C@H]4CC[C@H](n5cc6cc(NC(=O)c7cccc(C(F)(F)F)n7)c(C(C)(C)O)cc6n5)CC4)c3)c2)ccc1=O [Compound I-49]
DC50 (IRAK4 [1]): 0.1 to 1 µM
DC50 (IRAK4 [2]): 0.1 to 1 µM

SMILES: CC(C)(O)c1cc2nn([C@H]3CC[C@H](CNCCCCCCCCCC4=CC(c5cccnc5)CC(C(=O)Nc5ccc(=O)n(CC(=O)O)c5)=C4)CC3)cc2cc1NC(=O)c1cccc(C(F)(F)F)n1 (stereo partly drawn) [Compound I-60]
DC50 (IRAK4 [1]): > 10 µM
DC50 (IRAK4 [2]): > 10 µM

SMILES: CC(C)(O)c1cc2nn([C@H]3CC[C@H](CNCCCCCCc4cc(C(=O)Nc5ccc(=O)n(CC(=O)O)c5)cc(-c5cccnc5)c4)CC3)cc2cc1NC(=O)c1cccc(C(F)(F)F)n1 [Compound I-96]
DC50 (IRAK4 [1]): > 10 µM
DC50 (IRAK4 [2]): > 10 µM

SMILES: CC(C)(O)c1cc2nn([C@H]3CC[C@H](CNCCCCCCc4ccc5c(-c6cccc(C(=O)Nc7ccc(=O)n(CC(=O)O)c7)c6)cncc5c4)CC3)cc2cc1NC(=O)c1cccc(C(F)(F)F)n1 [Compound I-52]
DC50 (IRAK4 [1]): > 10 µM
DC50 (IRAK4 [2]): > 10 µM

SMILES: COC(=O)Cn1cc(NC(=O)c2cccc(-c3cncc4c(CCCCCCNC[C@H]5CC[C@H](n6cc7cc(NC(=O)c8cccc(C(F)(F)F)n8)c(C(C)(C)O)cc7n6)CC5)cccc34)c2)ccc1=O [Compound I-56]
DC50 (IRAK4 [1]): > 10 µM
DC50 (IRAK4 [2]): > 10 µM

SMILES: CCOC(=O)Cn1cc(NC(=O)c2cccc3c2ccn3CCCCCCNC[C@H]2CC[C@H](n3cc4cc(NC(=O)c5cccc(C(F)(F)F)n5)c(C(C)(C)O)cc4n3)CC2)ccc1=O [Compound I-71]
DC50 (IRAK4 [1]): > 10 µM
DC50 (IRAK4 [2]): > 10 µM

Next, values leading:

DC50 (IRAK4 [1]): > 10 µM
DC50 (IRAK4 [2]): 1 to 10 µM
SMILES: CCOC(=O)Cn1cc(NC(=O)c2ccc(-c3ccc(F)c(CCCCCCCCCNC[C@H]4CC[C@H](n5cc(NC(=O)c6cnn7ccc(N8C[C@H]9C[C@@H]8CO9)nc67)c(C(F)F)n5)CC4)c3)cc2OC)ccc1=O [Compound I-66]

DC50 (IRAK4 [1]): > 10 µM
DC50 (IRAK4 [2]): > 10 µM
SMILES: COc1cc2nn([C@H]3CC[C@H](CNCCNc4cncc(N5CCC[C@H](C(=O)Nc6ccc(=O)n(CC(=O)O)c6)C5)c4)CC3)cc2cc1NC(=O)c1cccc(C(F)(F)F)n1 [Compound I-7]

DC50 (IRAK4 [1]): > 10 µM
DC50 (IRAK4 [2]): > 10 µM
SMILES: CCOC(=O)Cn1cc(NC(=O)c2cccc(-c3cncc(CCCCCCNC[C@H]4CC[C@H](n5cc(NC(=O)c6cnn7ccc(N8C[C@H]9C[C@@H]8CO9)nc67)c(C(F)F)n5)CC4)c3)c2)ccc1=O [Compound I-99]

DC50 (IRAK4 [1]): 1 to 10 µM
DC50 (IRAK4 [2]): > 10 µM
SMILES: CCOC(=O)Cn1cc(NC(=O)[C@H]2CCCN(c3cncc(NCCOCCOCCNC[C@H]4CC[C@H](n5cc6cc(NC(=O)c7cccc(C(F)(F)F)n7)c(OC)cc6n5)CC4)c3)C2)ccc1=O [Compound I-5]

DC50 (IRAK4 [1]): > 10 µM
DC50 (IRAK4 [2]): > 10 µM
SMILES: CC(C)(O)c1cc2nn([C@H]3CC[C@H](CNCCCc4cc(C(=O)Nc5ccc(=O)n(CC(=O)O)c5)cc(-c5cccnc5)c4)CC3)cc2cc1NC(=O)c1cccc(C(F)(F)F)n1 [Compound I-80]

DC50 (IRAK4 [1]): 1 to 10 µM
DC50 (IRAK4 [2]): 1 to 10 µM
SMILES: COC(=O)Cn1cc(NC(=O)c2cccc(-c3cncc4c(CCCCCCCCCNC[C@H]5CC[C@H](n6cc7cc(NC(=O)c8cccc(C(F)(F)F)n8)c(C(C)(C)O)cc7n6)CC5)cccc34)c2)ccc1=O [Compound I-54]

DC50 (IRAK4 [1]): 1 to 10 µM
DC50 (IRAK4 [2]): > 10 µM
SMILES: CCOC(=O)Cn1cc(NC(=O)[C@H]2CCCN(c3cncc(OCCOCCOCCOCCOCCNC[C@H]4CC[C@H](n5cc6cc(NC(=O)c7cccc(C(F)(F)F)c7)c(OC)cc6n5)CC4)c3)C2)ccc1=O [Compound I-43]

DC50 (IRAK4 [1]): 1 to 10 µM
DC50 (IRAK4 [2]): > 10 µM
SMILES: O=C(O)Cn1cc(NC(=O)[C@H]2CCCN(c3cncc(CCCCNC[C@H]4CC[C@H](n5cc(NC(=O)c6cnn7ccc(N8C[C@H]9C[C@@H]8CO9)nc67)c(C(F)F)n5)CC4)c3)C2)ccc1=O [Compound I-21]

DC50 (IRAK4 [1]): > 10 µM
DC50 (IRAK4 [2]): > 10 µM
SMILES: O=C(O)Cn1cc(NC(=O)[C@H]2CCCN(c3cncc(CCCCCCNC[C@H]4CC[C@H](n5cc(NC(=O)c6cnn7ccc(N8C[C@H]9C[C@@H]8CO9)nc67)c(C(F)F)n5)CC4)c3)C2)ccc1=O [Compound I-27]

DC50 (IRAK4 [1]): > 10 µM
DC50 (IRAK4 [2]): > 10 µM
SMILES: COc1cc2nn([C@H]3CC[C@H](CN(C)CC4CCN(c5cncc(N6CCCC(C(=O)Nc7ccc(=O)n(CC(=O)O)c7)C6)c5)CC4)CC3)cc2cc1NC(=O)c1cccc(C(F)(F)F)n1 (stereo partly drawn) [Compound I-19]

DC50 (IRAK4 [1]): > 10 µM
DC50 (IRAK4 [2]): > 10 µM
SMILES: COc1cc(-c2ccc(F)c(CCCCCCCCCNC[C@H]3CC[C@H](n4cc(NC(=O)c5cnn6ccc(N7C[C@H]8C[C@@H]7CO8)nc56)c(C(F)F)n4)CC3)c2)ccc1C(=O)Nc1ccc(=O)n(CC(=O)O)c1 [Compound I-65]

DC50 (IRAK4 [1]): > 10 µM
DC50 (IRAK4 [2]): > 10 µM
SMILES: CCOC(=O)Cn1cc(NC(=O)[C@H]2CCCN(c3cncc(NCCNC[C@H]4CC[C@H](n5cc6cc(NC(=O)c7cccc(C(F)(F)F)n7)c(OC)cc6n5)CC4)c3)C2)ccc1=O [Compound I-14]
